Measurements published in the NIST ThermoML archive (doi:10.1021/je0501843).
Several values for one entry are separate records, joined by “and”; a condition that tells them apart may be missing. Identical values can stand only once.

Assay: molar heat capacity at constant volume; wn = mass fraction of the nth substance listed
Settings: Fluid (supercritical or subcritical phases), Vacuum adiabatic calorimetry, w1 = 0.5001

FC(F)C(F)(F)F [pentafluoroethane] + FCF
Settings	molar heat capacity at constant volume
301 K, 4414 kPa	70.23 J/K/mol
302 K, 4977 kPa	70.17 J/K/mol
303 K, 5537 kPa	70.3 J/K/mol
303 K, 5540 kPa	70.03 J/K/mol
304 K, 6101 kPa	69.82 J/K/mol
304 K, 6103 kPa	69.96 J/K/mol
305 K, 6663 kPa	69.83 J/K/mol and 69.76 J/K/mol
306 K, 7227 kPa	69.97 J/K/mol
306 K, 7228 kPa	70.45 J/K/mol
307 K, 7791 kPa	70.07 J/K/mol
307 K, 7792 kPa	70.29 J/K/mol
308 K, 8356 kPa	69.75 J/K/mol
308 K, 8357 kPa	69.97 J/K/mol
309 K, 8918 kPa	70.23 J/K/mol and 69.75 J/K/mol
310 K, 9482 kPa	70.03 J/K/mol
310 K, 9484 kPa	69.9 J/K/mol
311 K, 10048 kPa	70.12 J/K/mol
311 K, 10049 kPa	69.86 J/K/mol
312 K, 10614 kPa	69.67 J/K/mol
312 K, 10615 kPa	69.66 J/K/mol
313 K, 11178 kPa	69.33 J/K/mol
313 K, 11179 kPa	69.43 J/K/mol
314 K, 11741 kPa	69.02 J/K/mol
314 K, 11743 kPa	69.3 J/K/mol
315 K, 12309 kPa	69.15 J/K/mol and 68.67 J/K/mol
316 K, 12875 kPa	69.06 J/K/mol
316 K, 12877 kPa	68.75 J/K/mol
317 K, 13440 kPa	68.83 J/K/mol and 68.21 J/K/mol
318 K, 14003 kPa	67.4 J/K/mol
318 K, 14005 kPa	68 J/K/mol
319 K, 14570 kPa	67.78 J/K/mol
319 K, 14571 kPa	68.05 J/K/mol
320 K, 15135 kPa	67.81 J/K/mol
320 K, 15137 kPa	68.49 J/K/mol
321 K, 15700 kPa	67.05 J/K/mol
321 K, 15701 kPa	67.37 J/K/mol
322 K, 16263 kPa	66.48 J/K/mol
322 K, 16265 kPa	66.83 J/K/mol
323 K, 16830 kPa	66.97 J/K/mol and 66.81 J/K/mol
324 K, 17394 kPa	66.92 J/K/mol
324 K, 17396 kPa	66.39 J/K/mol
325 K, 5448 kPa	69.93 J/K/mol
325 K, 17959 kPa	66.13 J/K/mol
325 K, 17961 kPa	66.31 J/K/mol
326 K, 5835 kPa	69.81 J/K/mol
326 K, 5836 kPa	71.48 J/K/mol
326 K, 18524 kPa	65.89 J/K/mol
326 K, 18525 kPa	66.07 J/K/mol
327 K, 6224 kPa	70.12 J/K/mol
327 K, 6225 kPa	69.92 J/K/mol
327 K, 19088 kPa	66.16 J/K/mol
327 K, 19090 kPa	66.42 J/K/mol
328 K, 6615 kPa	70.49 J/K/mol
328 K, 6616 kPa	71.47 J/K/mol
328 K, 19652 kPa	66.1 J/K/mol
328 K, 19655 kPa	66.08 J/K/mol
329 K, 7006 kPa	70.47 J/K/mol
329 K, 7007 kPa	71.63 J/K/mol
330 K, 7397 kPa	69.74 J/K/mol
330 K, 7399 kPa	71.02 J/K/mol
331 K, 7788 kPa	69.69 J/K/mol
331 K, 7790 kPa	71.06 J/K/mol
332 K, 8183 kPa	71.27 J/K/mol
332 K, 8184 kPa	70.57 J/K/mol
333 K, 8579 kPa	70.36 J/K/mol and 71.51 J/K/mol
334 K, 8970 kPa	71.08 J/K/mol
334 K, 8971 kPa	69.51 J/K/mol
335 K, 9364 kPa	69.28 J/K/mol and 70.76 J/K/mol
336 K, 9759 kPa	69.92 J/K/mol and 70.89 J/K/mol
337 K, 10156 kPa	71.33 J/K/mol
337 K, 10157 kPa	70.6 J/K/mol
338 K, 6179 kPa	73.09 J/K/mol
338 K, 10552 kPa	71.08 J/K/mol
338 K, 10553 kPa	69.86 J/K/mol
339 K, 6478 kPa	73.25 J/K/mol
339 K, 10948 kPa	68.64 J/K/mol and 70.46 J/K/mol
340 K, 6782 kPa	73.55 J/K/mol
340 K, 11344 kPa	69.16 J/K/mol
340 K, 11346 kPa	71.1 J/K/mol
341 K, 7089 kPa	73.85 J/K/mol
341 K, 11743 kPa	69.77 J/K/mol
341 K, 11745 kPa	71.13 J/K/mol
342 K, 7389 kPa	73.14 J/K/mol
342 K, 12139 kPa	69.04 J/K/mol
342 K, 12142 kPa	70.69 J/K/mol
343 K, 7693 kPa	72.74 J/K/mol
343 K, 12536 kPa	68.97 J/K/mol
343 K, 12538 kPa	70.99 J/K/mol
344 K, 7998 kPa	73.01 J/K/mol
344 K, 12935 kPa	69.06 J/K/mol
344 K, 12936 kPa	70.57 J/K/mol
345 K, 8306 kPa	73.42 J/K/mol
345 K, 13334 kPa	70.04 J/K/mol
346 K, 8612 kPa	73.52 J/K/mol
346 K, 13733 kPa	70.31 J/K/mol
347 K, 6281 kPa	76.51 J/K/mol
347 K, 8917 kPa	72.76 J/K/mol
347 K, 14131 kPa	69.61 J/K/mol
348 K, 6505 kPa	75.76 J/K/mol
348 K, 9225 kPa	72.31 J/K/mol
348 K, 14528 kPa	69.08 J/K/mol
349 K, 5380 kPa	96.64 J/K/mol
349 K, 6732 kPa	76.89 J/K/mol
349 K, 9535 kPa	72.88 J/K/mol
349 K, 14929 kPa	70.2 J/K/mol
350 K, 5486 kPa	95.02 J/K/mol
350 K, 5543 kPa	91.24 J/K/mol
350 K, 5720 kPa	84.88 J/K/mol
350 K, 6957 kPa	76.37 J/K/mol
350 K, 9844 kPa	72.65 J/K/mol
350 K, 15331 kPa	69.99 J/K/mol
351 K, 5591 kPa	91.71 J/K/mol
351 K, 5661 kPa	90.24 J/K/mol
351 K, 5866 kPa	81.35 J/K/mol
351 K, 7184 kPa	75.16 J/K/mol
351 K, 10153 kPa	72.45 J/K/mol
351 K, 15729 kPa	68.92 J/K/mol
352 K, 5697 kPa	89.08 J/K/mol
352 K, 5778 kPa	87.68 J/K/mol
352 K, 5877 kPa	87.6 J/K/mol
352 K, 6013 kPa	80.15 J/K/mol
352 K, 7411 kPa	74.15 J/K/mol
352 K, 10462 kPa	72.57 J/K/mol
352 K, 16128 kPa	68.79 J/K/mol
353 K, 5802 kPa	88.36 J/K/mol
353 K, 5898 kPa	87.13 J/K/mol
353 K, 6010 kPa	87.42 J/K/mol
353 K, 6163 kPa	80.29 J/K/mol
353 K, 7640 kPa	75.09 J/K/mol
353 K, 10771 kPa	72.4 J/K/mol
353 K, 16529 kPa	69.17 J/K/mol
354 K, 5907 kPa	87.38 J/K/mol
354 K, 6017 kPa	86.01 J/K/mol
354 K, 6144 kPa	86.89 J/K/mol
354 K, 6312 kPa	80.47 J/K/mol
354 K, 7867 kPa	74.78 J/K/mol
354 K, 11082 kPa	72.54 J/K/mol
354 K, 16929 kPa	68.92 J/K/mol
355 K, 6013 kPa	85.59 J/K/mol
355 K, 6136 kPa	84.29 J/K/mol
355 K, 6277 kPa	85.22 J/K/mol
355 K, 6460 kPa	78.25 J/K/mol
355 K, 8099 kPa	73.81 J/K/mol
355 K, 11393 kPa	71.62 J/K/mol
355 K, 17330 kPa	68.05 J/K/mol
356 K, 6119 kPa	85.68 J/K/mol
356 K, 6256 kPa	84 J/K/mol
356 K, 6409 kPa	84.29 J/K/mol
356 K, 6610 kPa	77.58 J/K/mol
356 K, 8331 kPa	73.96 J/K/mol
356 K, 11703 kPa	71.68 J/K/mol
356 K, 17728 kPa	68.48 J/K/mol
357 K, 6227 kPa	86.16 J/K/mol
357 K, 6375 kPa	83.21 J/K/mol
357 K, 6544 kPa	84.6 J/K/mol
357 K, 6762 kPa	78.59 J/K/mol
357 K, 8563 kPa	73.79 J/K/mol
357 K, 12015 kPa	72.2 J/K/mol
357 K, 18129 kPa	68.93 J/K/mol
358 K, 6332 kPa	84.37 J/K/mol
358 K, 6496 kPa	82.34 J/K/mol
358 K, 6679 kPa	84.32 J/K/mol
358 K, 6913 kPa	78.26 J/K/mol
358 K, 8795 kPa	73.5 J/K/mol
358 K, 12328 kPa	72.12 J/K/mol
358 K, 18529 kPa	68.62 J/K/mol
359 K, 6438 kPa	82.91 J/K/mol
359 K, 6616 kPa	81.68 J/K/mol
359 K, 6814 kPa	82.54 J/K/mol
359 K, 7064 kPa	76.43 J/K/mol
359 K, 9028 kPa	72.9 J/K/mol
359 K, 12639 kPa	71.57 J/K/mol
359 K, 18928 kPa	68.27 J/K/mol
360 K, 6544 kPa	82.44 J/K/mol
360 K, 6737 kPa	80.97 J/K/mol
360 K, 6948 kPa	82 J/K/mol
360 K, 7219 kPa	76.78 J/K/mol
360 K, 9258 kPa	72.64 J/K/mol
360 K, 12952 kPa	70.73 J/K/mol
361 K, 6650 kPa	82.84 J/K/mol
361 K, 6858 kPa	80.53 J/K/mol
361 K, 7085 kPa	81.72 J/K/mol
361 K, 7368 kPa	77.24 J/K/mol
361 K, 9493 kPa	73.35 J/K/mol
361 K, 13265 kPa	71.22 J/K/mol
362 K, 6758 kPa	82.74 J/K/mol
362 K, 6980 kPa	80.56 J/K/mol
362 K, 7222 kPa	81.91 J/K/mol
362 K, 7523 kPa	75.41 J/K/mol
362 K, 9726 kPa	73.82 J/K/mol
362 K, 13581 kPa	70.53 J/K/mol
363 K, 6864 kPa	81.25 J/K/mol
363 K, 7101 kPa	80.13 J/K/mol
363 K, 7357 kPa	81.64 J/K/mol
363 K, 7676 kPa	75.63 J/K/mol
363 K, 9958 kPa	73.52 J/K/mol
